From paper PMC10451377, “Rationally Designed Pyrimidine Compounds: Promising Novel Antibiotics for the Treatment of Staphylococcus aureus-Associated Bovine Mastitis” (Antibiotics, 2023)
Converted amounts (≈) assume the structure as drawn. Where two headings read alike, the source gives them in different places.

Legend:
[1] = tested on: Staphylococcus aureus ATCC 29213; assay: Broth microdilution MIC; conditions: ATCC29213, read-out: Broth Microdilution MIC
[2] = tested on: Staphylococcus aureus CMRSA-2; assay: Broth microdilution MIC; type: cell-based
Excerpt: (§1) Reference strains for this study (S. aureus ATCC 29213, ATCC 29740 [bovine mastitis strain Newbould], S. epidermidis ATCC 12228, E. coli ATCC 35695, E. faecalis ATCC 29212) were obtained from the American Type Culture Collection (ATCC, Rockville, MD). S. aureus strains CMRSA-10 and CMRSA-2 were obtained from the Laboratoire de santé publique du Québec (LSPQ, Sainte-Anne-de-Bellevue, QC, Canada) and are Canadian CA-MRSA USA-300 and HA-MRSA USA-100 clones, respectively. The strain E. coli imp4213 (lptD), used as a control in MIC assays, is a derivative of E. coli ATCC 35695 (E. coli MC4100) with an increased membrane permeability. […] Other MRSA strains used in this study are clinical isolates of human origin obtained from the microbiology laboratory of the Centre Hospitalier Universitaire de Sherbrooke (CHUS, Sherbrooke, QC, Canada). Bovine mastitis strains (S. aureus, S. chromogenes, S. haemolyticus, S. hominis, S. simulans) were obtained from the Canadian Bovine Mastitis and Milk Quality Research Network (CBRQMN, St-Hyacinthe, QC, Canada). Among these strains, S. aureus 2117 is a high producer of biofilm and was used in the biofilm-eradication assay. S. epidermidis isolates were provided by Centre de Recherche en Infectiologie (CRI) de Québec (Québec, QC, Canada).

[3] = tested on: Staphylococcus aureus CMRSA-10; assay: Broth microdilution MIC; type: cell-based
Excerpt: as §1

S. haemolitycus = assay: Susceptibility of isolate panel (MIC50, MIC90, range); type: cell-based, S. haemolyticus
Excerpt: as §1
(§2) The antibacterial activity of the most promising compound, PC206, was also evaluated against larger groups of clinical isolates of human and animal origin. The MIC50 and MIC90 values represented the concentrations of drug required to inhibit the growth of 50% and 90% of the bacterial strains tested, respectively.

[4] = tested on: guanine riboswitch-lacZ fusion construct (xpt-lacZ); assay: Riboswitch regulation assay (lacZ-gene reporter); type: cell-based, B. subtilis; conditions: concentrations below the MIC of 0.25 µg/mL
Excerpt: The novel pyrimidine compounds, especially PC206, display specificity and potency against some staphylococci but not the other bacterial genus (Table 1 and Table 2). Because they are structurally derived from PC1 and PC2, these novel antibiotic candidates are expected to have the same mode of action. […] To verify this hypothesis, a strain of B. subtilis with a guanine riboswitch-lacZ fusion construct (named xpt-lacZ) integrated in its chromosome was exposed to these new antimicrobials. […] Therefore, it is an adequate reporter species. The metabolization of substrate ONPG into colored ONP was normalized by the bacterial suspension absorbance at 600 nm (Miller units) and relativized to the untreated condition.
β-galactosidase gene expression in the presence of the new pyrimidine analogs was studied, using an xpt-lacZ transcriptional fusion construct integrated in the genome of B. subtilis as previously described. Briefly, cultures were grown for 5 h at 35 °C in CAMHB, from an initial optical density of 0.05 at 600 nm (OD600), and then diluted 1:20 and in the presence of different concentrations of the compounds tested. Cultures were centrifuged for 10 min at 13,100 rpm, the supernatant was discarded, and pellets were suspended in a Z-buffer (NaH2PO4 40 mM, Na2HPO4 60 mM, MgSO4 1 mM, KCl 10 mM). Cultures OD600 were measured, and bacteria were then lysed with lysozyme (1 mg/mL) and β-mercaptoethanol 50 mM for 30 min. Lysates were centrifuged for 10 min at 13,100 rpm, and supernatants were incubated for 5 min at 30 °C with the substrate orthonitrophenyl-β-galactoside (ONPG; Sigma Aldrich). Reactions were stopped with Na2CO3 1M, supernatants OD420 were measured, and Miller units were calculated. A decrease in β-galactosidase activity indicated binding of the test compound to the riboswitch. Guanine and oxacillin were used as […] controls, respectively. The formula to measure Miller units is as follows: Millerunits=1000×OD420/t·v·OD600
Here, t represents the time of incubation with ONPG, and v represents the volume of the reaction.

Bovine S. aureus = assay: Susceptibility of isolate panel (MIC50, MIC90, range); type: cell-based, Staphylococcus aureus
Excerpt: as §1, §2

MRSA = assay: as above; type: cell-based, Staphylococcus aureus
Excerpt: as §1, §2

S. epidermidis = assay: as above; type: cell-based
Excerpt: as §1, §2

S. chromogenes = assay: as above; type: cell-based
Excerpt: as §1, §2

S. hominis = assay: as above; type: cell-based
Excerpt: as §1, §2

S. simulans = assay: as above; type: cell-based
Excerpt: as §1, §2

[5] = tested on: Bacillus subtilis xpt-lacZ; assay: Broth microdilution MIC; type: cell-based; conditions: read-out: Broth Microdilution MIC
[6] = tested on: Staphylococcus epidermidis ATCC 12228; assay: Broth microdilution MIC; conditions: ATCC12228, read-out: Broth Microdilution MIC
[7] = tested on: Escherichia coli ΔlptD4213; assay: microbe, parasite or virus in culture; type: cell-based; conditions: read-out: Broth Microdilution MIC
Excerpt: as §1

[8] = tested on: Enterococcus faecalis ATCC 29212; assay: Broth microdilution MIC; conditions: ATCC29212, read-out: Broth Microdilution MIC
[9] = tested on: Escherichia coli ATCC 35695; assay: Broth microdilution MIC; conditions: ATCC35695, read-out: Broth Microdilution MIC
[10] = tested on: S. aureus bovine strain 2117 embedded in preformed biofilm; assay: Biofilm-eradication test (MBEC assay); type: cell-based, Staphylococcus aureus; conditions: concentrations up to 512 µg/mL
Method: The viability of bacteria in preformed biofilms treated with PC206 was evaluated using the MBEC assay™ system (formerly the Calgary Biofilm Device). The device consists of a plastic lid with 96 pegs and a 96-well plate. […] Plates were incubated at 35 °C for 24 h with agitation (120 rpm). […] The pegs were washed three times with PBS and the biofilm was sonicated for 10 min, and then transferred into a new 96-well base plate. The 96-well plate was centrifuged for 5 min at 180 g to recover the detached bacteria.

## Cc1onc(-c2ccccc2)c1C(=O)N[C@@H]1C(=O)N2[C@@H]1SC(C)(C)[C@@H]2C(=O)O [OXA, oxacillin]
[1]
  MIC: 0.25 µg/mL (≈ 0.623 µM)
[2]; CMRSA2, S. aureus CMRSA-2, CAMHB supplemented with 2% NaCl, read-out: Broth Microdilution MIC
  MIC: > 64 µg/mL
[3]; CMRSA10, S. aureus CMRSA-10, CAMHB supplemented with 2% NaCl, read-out: Broth Microdilution MIC
  MIC: 64 µg/mL (≈ 159 µM)
S. haemolitycus; Staphylococcus haemolyticus, S. haemolitycus, 10 isolates, CAMHB with 2% NaCl, read-out: MIC50
  MIC50: > 16 µg/mL
S. haemolitycus; Staphylococcus haemolyticus, S. haemolitycus, 10 isolates, CAMHB with 2% NaCl, read-out: MIC90
  MIC90: > 16 µg/mL
[4]
  Effect on Miller units: did not affect the expression of Miller units
Bovine S. aureus; Bovine S. aureus, 48 isolates, CAMHB with 2% NaCl
  MIC Range: 0.03 to 32 µg/mL
Bovine S. aureus; Staphylococcus aureus, Bovine S. aureus, 48 isolates, CAMHB with 2% NaCl, read-out: MIC50
  MIC50: 0.12 µg/mL (≈ 0.299 µM)
Bovine S. aureus; Staphylococcus aureus, Bovine S. aureus, 48 isolates, CAMHB with 2% NaCl, read-out: MIC90
  MIC90: 0.25 µg/mL (≈ 0.623 µM)
MRSA; 42 isolates, CAMHB with 2% NaCl
  MIC Range: 4 to 64 µg/mL
MRSA; Staphylococcus aureus, 42 isolates, CAMHB with 2% NaCl, read-out: MIC50
  MIC50: 32 µg/mL (≈ 79.7 µM)
MRSA; Staphylococcus aureus, 42 isolates, CAMHB with 2% NaCl, read-out: MIC90
  MIC90: 64 µg/mL (≈ 159 µM)
S. epidermidis; S. epidermidis, 10 isolates, CAMHB with 2% NaCl
  MIC Range: 0.03 to 16 µg/mL
S. epidermidis; Staphylococcus epidermidis, S. epidermidis, 10 isolates, CAMHB with 2% NaCl, read-out: MIC50
  MIC50: 2 µg/mL (≈ 4.98 µM)
S. epidermidis; Staphylococcus epidermidis, S. epidermidis, 10 isolates, CAMHB with 2% NaCl, read-out: MIC90
  MIC90: > 16 µg/mL
S. chromogenes; S. chromogenes, 5 isolates, CAMHB with 2% NaCl
  MIC Range: 0.06 to 0.12 µg/mL
S. chromogenes; S. chromogenes, 5 isolates, CAMHB with 2% NaCl, read-out: MIC50
  MIC50: 0.12 µg/mL (≈ 0.299 µM)
S. chromogenes; S. chromogenes, 5 isolates, CAMHB with 2% NaCl, read-out: MIC90
  MIC90: 0.12 µg/mL (≈ 0.299 µM)
S. hominis; Staphylococcus hominis, S. hominis, 10 isolates, CAMHB with 2% NaCl, read-out: MIC50
  MIC50: 1 µg/mL (≈ 2.49 µM)
S. hominis; Staphylococcus hominis, S. hominis, 10 isolates, CAMHB with 2% NaCl, read-out: MIC90
  MIC90: > 16 µg/mL
S. simulans; S. simulans, 5 isolates, CAMHB with 2% NaCl
  MIC Range: 0.06 to 0.12 µg/mL
S. simulans; Staphylococcus simulans, S. simulans, 5 isolates, CAMHB with 2% NaCl, read-out: MIC50
  MIC50: 0.06 µg/mL (≈ 0.149 µM)
S. simulans; Staphylococcus simulans, S. simulans, 5 isolates, CAMHB with 2% NaCl, read-out: MIC90
  MIC90: 0.12 µg/mL (≈ 0.299 µM)
[5]; B. subtilis xpt-lacZ
  MIC: 0.25 µg/mL (≈ 0.623 µM)

## CC[C@@H]1CCN[C@H](C(=O)N[C@@H]([C@H]2O[C@H](SC)[C@H](O)[C@@H](O)[C@H]2O)[C@H](C)Cl)C1 [PIR, pirlimycin]
S. haemolitycus; S. haemolitycus, 10 isolates
  MIC50: 0.25 µg/mL (≈ 0.608 µM)
  MIC90: >16 µg/mL
Bovine S. aureus; Bovine S. aureus, 48 isolates
  MIC50: 0.25 µg/mL (≈ 0.608 µM)
  MIC90: 0.5 µg/mL (≈ 1.22 µM)
  MIC Range: 0.12 to 1 µg/mL
MRSA; 42 isolates
  MIC50: >64 µg/mL
  MIC90: >64 µg/mL
S. epidermidis; S. epidermidis, 10 isolates
  MIC50: 0.12 µg/mL (≈ 0.292 µM)
  MIC90: >16 µg/mL
S. chromogenes; S. chromogenes, 5 isolates
  MIC50: 0.06 µg/mL (≈ 0.146 µM)
  MIC90: 1 µg/mL (≈ 2.43 µM)
  MIC Range: 0.06 to 2 µg/mL
S. hominis; S. hominis, 10 isolates
  MIC50: 1 µg/mL (≈ 2.43 µM)
  MIC90: >16 µg/mL
S. simulans; S. simulans, 5 isolates
  MIC50: 0.12 µg/mL (≈ 0.292 µM)
  MIC90: 0.25 µg/mL (≈ 0.608 µM)
  MIC Range: 0.12 to 0.25 µg/mL

## CN[C@H](CC(C)C)C(=O)N[C@H]1C(=O)N[C@@H](CC(N)=O)C(=O)N[C@H]2C(=O)N[C@H]3C(=O)N[C@H](C(=O)N[C@H](C(=O)O)c4cc(O)cc(O)c4-c4cc3ccc4O)[C@H](O)c3ccc(c(Cl)c3)Oc3cc2cc(c3O[C@@H]2O[C@H](CO)[C@@H](O)[C@H](O)[C@H]2O[C@H]2C[C@](C)(N)[C@H](O)[C@H](C)O2)Oc2ccc(cc2Cl)[C@H]1O [VAN, vancomycin]
[1]
  MIC: 0.5 µg/mL (≈ 0.345 µM)
[2]; CMRSA2, read-out: Broth Microdilution MIC
  MIC: 1 µg/mL (≈ 0.69 µM)
[3]; CMRSA10, read-out: Broth Microdilution MIC
  MIC: 1 µg/mL (≈ 0.69 µM)
S. haemolitycus; S. haemolitycus, 10 isolates
  MIC Range: 0.25 to 4 µg/mL
S. haemolitycus; Staphylococcus haemolyticus
  MIC50: 2 µg/mL (≈ 1.38 µM)
  MIC90: 4 µg/mL (≈ 2.76 µM)
Bovine S. aureus; Bovine S. aureus, 48 isolates
  MIC Range: 0.25 to 1 µg/mL
Bovine S. aureus; Staphylococcus aureus
  MIC50: 0.5 µg/mL (≈ 0.345 µM)
  MIC90: 0.5 µg/mL (≈ 0.345 µM)
MRSA; 42 isolates
  MIC Range: 0.5 to 4 µg/mL
MRSA; Staphylococcus aureus
  MIC50: 1 µg/mL (≈ 0.69 µM)
  MIC90: 4 µg/mL (≈ 2.76 µM)
[6]
  MIC: 1 µg/mL (≈ 0.69 µM)
S. epidermidis; S. epidermidis, 10 isolates
  MIC Range: 0.5 to 1 µg/mL
S. epidermidis; Staphylococcus epidermidis
  MIC50: 1 µg/mL (≈ 0.69 µM)
  MIC90: 1 µg/mL (≈ 0.69 µM)
S. chromogenes
  MIC50: 0.5 µg/mL (≈ 0.345 µM)
  MIC90: 0.5 µg/mL (≈ 0.345 µM)
S. chromogenes; S. chromogenes, 5 isolates
  MIC Range: 0.5 µg/mL (≈ 0.345 µM)
S. hominis; S. hominis, 10 isolates
  MIC Range: 0.25 to 1 µg/mL
S. hominis; Staphylococcus hominis
  MIC50: 0.5 µg/mL (≈ 0.345 µM)
  MIC90: 0.5 µg/mL (≈ 0.345 µM)
S. simulans; S. simulans, 5 isolates
  MIC Range: 0.5 µg/mL (≈ 0.345 µM)
S. simulans; Staphylococcus simulans
  MIC50: 0.5 µg/mL (≈ 0.345 µM)
  MIC90: 0.5 µg/mL (≈ 0.345 µM)
[7]
  MIC: 1 µg/mL (≈ 0.69 µM)
[8]
  MIC: 4 µg/mL (≈ 2.76 µM)
[9]
  MIC: > 128 µg/mL
[5]
  MIC: 0.25 µg/mL (≈ 0.173 µM)
[10]
  Effect on viable counts in preformed biofilm: did not impact viable counts
